Results published in paper PMC12363950 (bioRxiv, 2025).

Target: CRAF (Homo sapiens, UniProt P04049, Y340D/Y341D)

CCCS(=O)(=O)Nc1ccc(F)c(C(=O)c2c[nH]c3ncc(Cl)cc23)c1F [PLX4720]
X-ray crystal structure, 2.91 Å: The structure reveals clear electron density for both PLX4720 and CH5126766
